Measurements reported in ChEMBL document CHEMBL3797055, “Glabridin-chalcone hybrid molecules: drug resistance reversal agent against clinical isolates of methicillin-resistant Staphylococcus aureus” (Medchemcomm, 2016).
In brackets after ≈: the same amount, converted by molar mass.

Assays:
Staphylococcus aureus [1] = experiment: Potentiation of norfloxacin-induced antibacterial activity against clinical isolates of methicillin-resistant Staphylococcus aureus ST2071 assessed as reduction in norfloxacin MIC by checkerboard assay relative to control; format: functional
Staphylococcus aureus [2] = experiment: Potentiation of norfloxacin-induced antibacterial activity against clinical isolates of methicillin-resistant Staphylococcus aureus P4629 assessed as reduction in norfloxacin MIC by checkerboard assay relative to control; format: functional
Staphylococcus aureus [3] = experiment: Potentiation of norfloxacin-induced antibacterial activity against clinical isolates of methicillin-resistant Staphylococcus aureus P4423 assessed as reduction in norfloxacin MIC by checkerboard assay relative to control; format: functional
Staphylococcus aureus [4] = experiment: Potentiation of norfloxacin-induced antibacterial activity against clinical isolates of methicillin-resistant Staphylococcus aureus ST10760 assessed as reduction in norfloxacin MIC by checkerboard assay relative to control; format: functional
Staphylococcus aureus [5] = experiment: Potentiation of norfloxacin-induced antibacterial activity against clinical isolates of methicillin-resistant Staphylococcus aureus ST10342 assessed as reduction in norfloxacin MIC by checkerboard assay relative to control; format: functional
Staphylococcus aureus [6] = experiment: Potentiation of norfloxacin-induced antibacterial activity against clinical isolates of methicillin-resistant Staphylococcus aureus P4650 assessed as reduction in norfloxacin MIC by checkerboard assay relative to control; format: functional
Staphylococcus aureus [7] = experiment: Ratio of MIC for clinical isolates of methicillin-resistant Staphylococcus aureus ST2071 to MIC for clinical isolates of methicillin-resistant Staphylococcus aureus ST2071 in presence of norfloxacin; format: functional
Staphylococcus aureus [8] = experiment: Ratio of MIC for clinical isolates of methicillin-resistant Staphylococcus aureus P4629 to MIC for clinical isolates of methicillin-resistant Staphylococcus aureus P4629 in presence of norfloxacin; format: functional
Staphylococcus aureus [9] = experiment: Ratio of MIC for clinical isolates of methicillin-resistant Staphylococcus aureus P4423 to MIC for clinical isolates of methicillin-resistant Staphylococcus aureus P4423 in presence of norfloxacin; format: functional
Staphylococcus aureus [10] = experiment: Ratio of MIC for clinical isolates of methicillin-resistant Staphylococcus aureus ST10760 to MIC for clinical isolates of methicillin-resistant Staphylococcus aureus ST10760 in presence of norfloxacin; format: functional
Staphylococcus aureus [11] = experiment: Ratio of MIC for clinical isolates of methicillin-resistant Staphylococcus aureus ST10342 to MIC for clinical isolates of methicillin-resistant Staphylococcus aureus ST10342 in presence of norfloxacin; format: functional
Staphylococcus aureus [12] = experiment: Ratio of MIC for clinical isolates of methicillin-resistant Staphylococcus aureus P4650 to MIC for clinical isolates of methicillin-resistant Staphylococcus aureus P4650 in presence of norfloxacin; format: functional
Staphylococcus aureus [13] = experiment: Bactericidal activity against clinical isolates of methicillin-resistant Staphylococcus aureus ST2071 assessed as reduction in viability at MIC after 24 hrs by time kill kinetic analysis relative to control; format: functional
Staphylococcus aureus [14] = experiment: Bactericidal activity against clinical isolates of methicillin-resistant Staphylococcus aureus ST2071 assessed as reduction in viability at 0.5 MIC after 24 hrs by time kill kinetic analysis relative to control; format: functional
Staphylococcus aureus [15] = experiment: Bactericidal activity against clinical isolates of methicillin-resistant Staphylococcus aureus ST2071 assessed as reduction in viability at 0.5 MIC after 24 hrs by time kill kinetic analysis in presence of norfloxacin relative to control; format: functional
Staphylococcus aureus [16] = experiment: Antibacterial activity against Staphylococcus aureus MTCC 96 infected in ip dosed Swiss mouse assessed as reduction in bacterial load in blood administered qd for 7 days post infection measured 24 hrs after last dose by plate counting analysis; format: functional, organism-based
Staphylococcus aureus [17] = experiment: Antibacterial activity against Staphylococcus aureus MTCC 96 infected in ip dosed Swiss mouse assessed as reduction in bacterial load in liver administered qd for 7 days post infection measured 24 hrs after last dose by plate counting analysis; format: functional, organism-based
Staphylococcus aureus [18] = experiment: Antibacterial activity against Staphylococcus aureus MTCC 96 infected in ip dosed Swiss mouse assessed as reduction in bacterial load in spleen administered qd for 7 days post infection measured 24 hrs after last dose by plate counting analysis; format: functional, organism-based
Staphylococcus aureus [19] = experiment: Antibacterial activity against Staphylococcus aureus MTCC 96 infected in ip dosed Swiss mouse assessed as reduction in bacterial load in lung administered qd for 7 days post infection measured 24 hrs after last dose by plate counting analysis; format: functional, organism-based
Staphylococcus aureus [20] = experiment: Antibacterial activity against Staphylococcus aureus MTCC 96 infected in ip dosed Swiss mouse assessed as reduction in bacterial load in kidney administered qd for 7 days post infection measured 24 hrs after last dose by plate counting analysis; format: functional, organism-based
Mus musculus [21] = experiment: Toxicity in Swiss mouse infected with Staphylococcus aureus MTCC 96 assessed as mortality at 12.5 to 100 mg/kg, ip qd for 7 days post infection; format: organism-based; details: in vivo, 168 h
Mus musculus [22] = experiment: Toxicity in Swiss mouse infected with Staphylococcus aureus MTCC 96 assessed as morbidity at 12.5 to 100 mg/kg, ip qd for 7 days post infection; format: organism-based; details: in vivo, 168 h
Staphylococcus aureus [23] = experiment: Antibacterial activity against Staphylococcus aureus MTCC 96 by broth microdilution assay; format: functional
Staphylococcus aureus [24] = experiment: Antibacterial activity against clinical isolates of methicillin-resistant Staphylococcus aureus ST2071 by broth microdilution assay; format: functional
Staphylococcus aureus [25] = experiment: Antibacterial activity against clinical isolates of methicillin-resistant Staphylococcus aureus P4629 by broth microdilution assay; format: functional
Staphylococcus aureus [26] = experiment: Antibacterial activity against clinical isolates of methicillin-resistant Staphylococcus aureus P4423 by broth microdilution assay; format: functional
Staphylococcus aureus [27] = experiment: Antibacterial activity against clinical isolates of methicillin-resistant Staphylococcus aureus ST10760 by broth microdilution assay; format: functional
Staphylococcus aureus [28] = experiment: Antibacterial activity against clinical isolates of methicillin-resistant Staphylococcus aureus ST10342 by broth microdilution assay; format: functional
Staphylococcus aureus [29] = experiment: Antibacterial activity against clinical isolates of methicillin-resistant Staphylococcus aureus P4650 by broth microdilution assay; format: functional
Staphylococcus aureus [30] = experiment: Potentiation of norfloxacin-induced antibacterial activity against clinical isolates of methicillin-resistant Staphylococcus aureus ST2071 assessed as norfloxacin MIC by checkerboard assay; format: functional
Staphylococcus aureus [31] = experiment: Potentiation of norfloxacin-induced antibacterial activity against clinical isolates of methicillin-resistant Staphylococcus aureus P4629 assessed as norfloxacin MIC by checkerboard assay; format: functional
Staphylococcus aureus [32] = experiment: Potentiation of norfloxacin-induced antibacterial activity against clinical isolates of methicillin-resistant Staphylococcus aureus P4423 assessed as norfloxacin MIC by checkerboard assay; format: functional
Staphylococcus aureus [33] = experiment: Potentiation of norfloxacin-induced antibacterial activity against clinical isolates of methicillin-resistant Staphylococcus aureus ST10760 assessed as norfloxacin MIC by checkerboard assay; format: functional
Staphylococcus aureus [34] = experiment: Potentiation of norfloxacin-induced antibacterial activity against clinical isolates of methicillin-resistant Staphylococcus aureus ST10342 assessed as norfloxacin MIC by checkerboard assay; format: functional
Staphylococcus aureus [35] = experiment: Potentiation of norfloxacin-induced antibacterial activity against clinical isolates of methicillin-resistant Staphylococcus aureus P4650 assessed as norfloxacin MIC by checkerboard assay; format: functional
Staphylococcus aureus [36] = experiment: Antibacterial activity against clinical isolates of methicillin-resistant Staphylococcus aureus ST2071 by checkerboard assay in presence of norfloxacin; format: functional
Staphylococcus aureus [37] = experiment: Antibacterial activity against clinical isolates of methicillin-resistant Staphylococcus aureus P4629 by checkerboard assay in presence of norfloxacin; format: functional
Staphylococcus aureus [38] = experiment: Antibacterial activity against clinical isolates of methicillin-resistant Staphylococcus aureus P4423 by checkerboard assay in presence of norfloxacin; format: functional
Staphylococcus aureus [39] = experiment: Antibacterial activity against clinical isolates of methicillin-resistant Staphylococcus aureus ST10760 by checkerboard assay in presence of norfloxacin; format: functional
Staphylococcus aureus [40] = experiment: Antibacterial activity against clinical isolates of methicillin-resistant Staphylococcus aureus ST10342 by checkerboard assay in presence of norfloxacin; format: functional
Staphylococcus aureus [41] = experiment: Antibacterial activity against clinical isolates of methicillin-resistant Staphylococcus aureus P4650 by checkerboard assay in presence of norfloxacin; format: functional

For `COc1cc(OC)c([C@@H]2COc3c(cc(/C=C/C(=O)c4ccco4)c4c3C=CC(C)(C)O4)C2)cc1/C=C/C(=O)c1ccco1`, the “fold change (FC)” value (Staphylococcus aureus [1]) was 16, the “fold change (FC)” value (Staphylococcus aureus [2]) was 16 and the “fold change (FC)” value (Staphylococcus aureus [3]) was 8. For the same molecule, the “fold change (FC)” value (Staphylococcus aureus [4]) was 8, the “fold change (FC)” value (Staphylococcus aureus [5]) was 8 and the “fold change (FC)” value (Staphylococcus aureus [6]) was 8. For the same molecule, the Ratio (Staphylococcus aureus [7]) was “<=4”, the Ratio (Staphylococcus aureus [8]) was “<=4” and the Ratio (Staphylococcus aureus [9]) was “<=4”. The Ratio (Staphylococcus aureus [10]) was “<=4”, the Ratio (Staphylococcus aureus [11]) was “<=4” and the Ratio (Staphylococcus aureus [12]) was “<=4”. For the same molecule, the “fold change (FC)” value (Staphylococcus aureus [13]) was 2, the “fold change (FC)” value (Staphylococcus aureus [14]) was “<=1.52” and the “fold change (FC)” value (Staphylococcus aureus [15]) was under 16. The Activity (Staphylococcus aureus [16]) was “Dose-dependent effect”, the Activity (Staphylococcus aureus [17]) was “Dose-dependent effect” and the Activity (Staphylococcus aureus [18]) was “Dose-dependent effect”. For the same molecule, the Activity (Staphylococcus aureus [19]) was “Dose-dependent effect”, the Activity (Staphylococcus aureus [20]) was “Dose-dependent effect” and the Activity (Mus musculus [21]) was “Non-toxic”. The Activity (Mus musculus [22]) was “Non-toxic”, the MIC (Staphylococcus aureus [23]) was 25 µg/mL (≈ 42.2 µM) and the MIC (Staphylococcus aureus [24]) was 50 µg/mL (≈ 84.4 µM). For the same molecule, the MIC (Staphylococcus aureus [25]) was 25 µg/mL (≈ 42.2 µM), the MIC (Staphylococcus aureus [26]) was 50 µg/mL (≈ 84.4 µM) and the MIC (Staphylococcus aureus [27]) was 50 µg/mL (≈ 84.4 µM). For the same molecule, the MIC (Staphylococcus aureus [28]) was 50 µg/mL (≈ 84.4 µM), the MIC (Staphylococcus aureus [29]) was 25 µg/mL (≈ 42.2 µM) and the MIC (Staphylococcus aureus [30]) was 31.2 µg/mL. For the same molecule, the MIC (Staphylococcus aureus [31]) was 31.2 µg/mL, the MIC (Staphylococcus aureus [32]) was 31.2 µg/mL and the MIC (Staphylococcus aureus [33]) was 62.5 µg/mL. For the same molecule, the MIC (Staphylococcus aureus [34]) was 31.2 µg/mL, the MIC (Staphylococcus aureus [35]) was 31.2 µg/mL and the “fractional inhibitory concentration index (FICI)” value (Staphylococcus aureus [36]) was 0.312. For the same molecule, the “fractional inhibitory concentration index (FICI)” value (Staphylococcus aureus [37]) was 0.312, the “fractional inhibitory concentration index (FICI)” value (Staphylococcus aureus [38]) was 0.375 and the “fractional inhibitory concentration index (FICI)” value (Staphylococcus aureus [39]) was 0.375. The “fractional inhibitory concentration index (FICI)” value (Staphylococcus aureus [40]) was 0.375 and the “fractional inhibitory concentration index (FICI)” value (Staphylococcus aureus [41]) was 0.375.
